Assay results published in US20250236616A1, “IMMUNOMODULATING AZALIDES” (Zoetis Services LLC, priority 2021, published 2025).
pIC50: −log10 of the molar value.

Key:
TNF-α = assay: Whole bovine blood assay, LPS-induced TNF-α; assay type: cell-based; conditions: fresh whole bovine blood, LPS stimulant; top drug concentration 250 μM
Method: Whole Blood Assay-Fresh whole bovine blood samples were collected into heparinized vacutainer tubes. Assay plates were prepared with 25 μL of drug diluted in PBS at varying concentration in 96 round bottom wells, then 225 μL of blood was added and plates incubated at 37° C. for 4 hours. Cells were stimulated with LPS (or PBS for controls) by adding 25 μL to the plates at a final concentration of 1 μg/mL and incubated at 37° C. for 18 hours. To collect plasma, plates were centrifuged at 2,000×g for 10 minutes and 100 μL of supernatant was transferred to a 96 well polypropylene plate that was sealed and stored at −80° C. Samples were assayed for cytokines using the Meso Scale Discovery (MSD) platform (described below). This same MSD platform was used to assess cytokines in the plasma collected directly from drug treated animals.
Cytokine Detection—An MSD U-Plex cytokine assay was developed following the MSD U-Plex protocol guide and included biotinylated capture antibodies against: bovine Interleukin (IL)-1β (Biorad), bovine IL-6 (R&D Systems) and bovine tumor necrosis factor (TNF)-α (R&D Systems). […] Assay calibrators (Kingfisher) were diluted to a concentration of […] in control lithium heparin plasma, followed by 4-fold serial dilutions into plasma. […] Antibodies were used at the following concentrations: anti-IL-1β at 1 μg/mL, anti-IL-6 at 1 μg/mL and anti-TNF-α at 0.5 μg/mL. Cytokines were quantified according to manufacturer's instructions using a chemiluminescent readout. In brief, 0.5 mL of all biotinylated antibodies were diluted to 10 μg/mL with Diluent 100 and paired to their respective linkers by adding 750 μL of supplied Linker solution and incubated for 30 minutes followed by addition of Stop solution for another 30 minutes. The linked antibodies were then diluted 10-fold into Stop solution. Plates were coated by adding 50 μL of antibody solutions per well and incubated covered and shaking for 1 hour at room temperature. Plates were washed three times with PBS/Tween20 prior to samples or standards being added at 30 μL per well and incubated as above. Plates were washed three times before detection antibodies were added along with 2% goat and rabbit serum to block and incubated same as above. Plates were washed a further three times before addition of 150 μL 2X Read buffer and read immediately on the SI6000 instrument (MSD). For soluble protein levels, a BCA protein kit (Thermofisher) was used. The cytokine concentrations (pg/mL) were normalized to the total protein levels for each sample. [Bassel et. al., BMC Veterinary Research (2020) 16:168]
Therefore, a fresh whole bovine blood assay was developed with LPS as a stimulant (TLR-4 agonist) and with IL-1β and TNF-α as the read-out. Compounds of the invention were evaluated against a positive control for their ability to inhibit LPS-induced IL-1β and TNF-α as an overall evaluation of relative potency and modulation of target pathways.
TNFα is a cell signaling protein, cytokine, that plays a key role in both acute and chronic inflammation. In the bovine whole blood in vitro screening assay the inhibition of TNFα as induced by stimulation by lipopolysaccharide (LPS) and as measured by half the maximal inhibitory concentration (IC50) is recognized as the primary biomarker of immunomodulation potency upon pretreatment with the compounds of the invention. IL-1 B is a mediator of the inflammation response and is involved in a number of cellular activities including proliferation, differentiation and apoptosis. IL-1ß is also released upon cellular stress or cytotoxicity or upon TLR stimulation. […] In order to estimate a therapeutic index from the in vitro assay a differential between the TNFα IC50 (immunomodulation potency) versus the perceived cellular toxicity concentration (IL-1β release or overstimulation) was utilized.

IL-6 = assay: Whole bovine blood assay, LPS-induced IL-6; assay type: cell-based; conditions: fresh whole bovine blood, LPS stimulant; top drug concentration 250 μM

Row | Compound | pIC50 (TNF-α) | pIC50 (IL-6)
1 | CC[C@H]1OC(=O)[C@H](C)[C@@H](O[C@H]2C[C@@](C)(OC)[C@](O)(CNCc3ccccc3)[C@H](C)O2)[C@H](C)[C@@H](O[C@@H]2O[C@H](C)C[C@H](N(C)S(=O)(=O)c3nccn3C)[C@H]2Oc2ccc(F)cc2)[C@](C)(O)C[C@@H](C)CN[C@H](C)[C@@H](O)[C@]1(C)O [Example B-141] | 5.15 | 5.40
2 | CC[C@H]1OC(=O)[C@H](C)[C@@H](O)[C@H](C)[C@@H](O[C@H]2O[C@@H](C)C[C@@H](N(C)S(=O)(=O)Nc3ccccc3)[C@@H]2Oc2ccc(F)cc2)[C@](C)(O)C[C@@H](C)CN[C@H](C)[C@@H](O)[C@]1(C)O [Example A-37] | 4.72 | 4.34
3 | CCCNC[C@]1(O)[C@H](C)O[C@@H](O[C@H]2[C@H](C)[C@@H](O[C@@H]3O[C@H](C)C[C@H](N(C)S(=O)(=O)c4ccccc4NC4CC4)[C@H]3O)[C@](C)(O)C[C@@H](C)CN[C@H](C)[C@@H](O)[C@](C)(O)[C@@H](CC)OC(=O)[C@@H]2C)C[C@@]1(C)OC [Example B-63] | 5.05 | 5.00
4 | CCCNC[C@]1(O)[C@H](C)O[C@@H](O[C@H]2[C@H](C)[C@@H](O[C@@H]3O[C@H](C)C[C@H](N(CC(C)C)S(=O)(=O)c4ccc(Cl)cc4)[C@H]3O)[C@](C)(O)C[C@@H](C)CN[C@H](C)[C@@H](O)[C@](C)(O)[C@@H](CC)OC(=O)[C@@H]2C)C[C@@]1(C)OC [Example B-150] | 5.40 | 5.30
5 | CCCNC[C@]1(O)[C@H](C)O[C@@H](O[C@H]2[C@H](C)[C@@H](O[C@@H]3O[C@H](C)C[C@H](N(CC(C)C)S(=O)(=O)c4ccc(OC)cc4)[C@H]3O)[C@](C)(O)C[C@@H](C)CN[C@H](C)[C@@H](O)[C@](C)(O)[C@@H](CC)OC(=O)[C@@H]2C)C[C@@]1(C)OC [Example B-149] | 5.15 | 5.10
6 | CCCNC[C@]1(O)[C@H](C)O[C@@H](O[C@H]2[C@H](C)[C@@H](O[C@@H]3O[C@H](C)C[C@H](N(C)S(=O)(=O)c4ccc(Cl)cc4)[C@H]3O)[C@](C)(O)C[C@@H](C)CN(CCC)[C@H](C)[C@@H](O)[C@](C)(O)[C@@H](CC)OC(=O)[C@@H]2C)C[C@@]1(C)OC [Example B-151] | 5.10 | 5.00

The next lines start with the values.

Row | pIC50 (TNF-α) | pIC50 (IL-6) | Compound
7 | 5.30 | 5.40 | CC[C@H]1OC(=O)[C@H](C)[C@@H](O[C@H]2C[C@@](C)(OC)[C@](O)(CN3CCCCC3)[C@H](C)O2)[C@H](C)[C@@H](O[C@@H]2O[C@H](C)C[C@H](N(C)S(=O)(=O)c3nccn3C)[C@H]2Oc2ccc(F)cc2)[C@](C)(O)C[C@@H](C)CN[C@H](C)[C@@H](O)[C@]1(C)O [Example C-56]
8 | 5.30 | 5.40 | CCCN([C@H]1C[C@@H](C)O[C@@H](O[C@@H]2[C@@H](C)[C@H](O[C@H]3C[C@@](C)(OC)[C@](O)(CN4CCCCC4)[C@H](C)O3)[C@@H](C)C(=O)O[C@H](CC)[C@@](C)(O)[C@H](O)[C@@H](C)NC[C@H](C)C[C@@]2(C)O)[C@@H]1O)S(=O)(=O)c1ccc(Cl)cc1 [Example C-40]
9 | 5.22 | 5.05 | CC[C@H]1OC(=O)[C@H](C)[C@@H](O[C@H]2C[C@@](C)(OC)[C@](O)(CN3CCCCC3)[C@H](C)O2)[C@H](C)[C@@H](O[C@@H]2O[C@H](C)C[C@H](N(C)S(=O)(=O)Nc3ccc(C(F)(F)F)cc3)[C@H]2O)[C@](C)(O)C[C@@H](C)CN(CC)[C@H](C)[C@@H](O)[C@]1(C)O [Example C-36]
10 | 4.60 | 4.60 | CC[C@H]1OC(=O)[C@H](C)[C@@H](O[C@H]2C[C@@](C)(OC)[C@](O)(CN3CCCCC3)[C@H](C)O2)[C@H](C)[C@@H](O[C@@H]2O[C@H](C)C[C@H](N(C)S(=O)(=O)Nc3ccc(Cl)c(Cl)c3)[C@H]2O)[C@](C)(O)C[C@@H](C)CN[C@H](C)[C@@H](O)[C@]1(C)O [Example C-28]
11 | 5.05 | 5.00 | CC[C@H]1OC(=O)[C@H](C)[C@@H](O[C@H]2C[C@@](C)(OC)[C@](O)(CN3CCCCC3)[C@H](C)O2)[C@H](C)[C@@H](O[C@@H]2O[C@H](C)C[C@H](N(C)S(=O)(=O)Nc3cccc(Cl)c3)[C@H]2O)[C@](C)(O)C[C@@H](C)CN[C@H](C)[C@@H](O)[C@]1(C)O [Example C-23]
